According to paper PMC4588179, “Antifungal Activity of 14-Helical β-Peptides against Planktonic Cells and Biofilms of Candida Species” (Pharmaceuticals, 2015):
≈ marks a conversion by molar mass, not a printed value.

What was measured:
[1] = RP-HPLC retention time as measure of β-peptide hydrophobicity; assay type: physicochemical; conditions: chromatographic, analytical RP-HPLC, C18 (Waters X-bridge, 4.6 mm × 250 mm), gradient 20%–80% CH3CN in water with 0.1% TFA over 5–35 min, 1 mL/minute, 0.5 to 1 mg/mL, 50 µL injected; mean ± standard deviation of triplicate measurements
Description: β-peptides were produced by microwave-assisted Fmoc synthesis at 20−40 μmol scales and purified by RP-HPLC using a C18 column. MALDI mass spectrometry was used to validate the mass of each peptide as described previously. Retention times determined by C18 RP-HPLC were used as a measure of the relative hydrophobicity of the β-peptides (Table 1). This approach has been used previously by our group and others to assess the relative hydrophobicity of different peptide structures. Preliminary antifungal activity and mammalian toxicity evaluation were reported previously for β-peptides 1–16 as planktonic MIC against C. albicans and percent hemolysis at the MIC, respectively.
Hydrophobicity of 14-helical β-peptides was characterized by measuring retention times with an analytical RP-HPLC using a C18 column (Waters, X-bridge, column dimensions 4.6 mm × 250 mm, Milford, MA, USA). The β-peptide solutions (0.5 to 1 mg/mL, 50 µL) were injected into the HPLC at a flow rate of 1 mL/minute. Retention time was characterized in triplicate with a gradient of 20%–80% CH3CN in water containing 0.1% TFA over 5–35 min.

[2] = test system: C. glabrata 5376; assay: Planktonic antifungal susceptibility (modified CLSI, XTT end point); assay type: cell-based, Candida glabrata; conditions: 10^3 cells/mL, RPMI, 35 °C, 48 h, XTT (A490), <10% metabolic activity, at least two independent days, three replicates each
Procedure: (§1) C. albicans strains SC5314 and ATCC 90028 were purchased from ATCC. C. albicans K1, C. glabrata 5376, C. parapsilosis 5986 and C. tropicalis 98-234 are clinical isolates from invasive candidiasis and were generously donated by the Andes group (University of Wisconsin-Madison). K1 is fluconazole resistant. All strains were stored as a 50% glycerol stock at −80 °C and grown in a liquid YPD media. For planktonic susceptibility testing, cells were grown on agar plates at 30 °C for 24 h and 2–3 colonies were used for the cell inoculum. For spheroplast formation and biofilm susceptibility testing assays, cells were grown overnight in YPD at 30 °C. RPMI (with L-glutamine and phenol red buffered with 3-(N-morpholino) propanesulfonic acid and adjusted to pH 7.0) was the media used for all susceptibility tests. XTT solution for assessing metabolic activity was prepared at 0.5 g/L in PBS with 3 μM menadione in acetone and pH adjusted to 7.4.
(§2) The antifungal activities of the β-peptides against C. albicans, C. glabrata, C. parapsilosis, C. tropicalis cells were assayed in accordance to the guidelines for planktonic susceptibility testing provided by the Clinical and Laboratory Standards Institute, but with a modification to include a quantitative XTT cell metabolic activity end-point. […] After 48 h, the MICs were recorded visually as the first well that […] and by using an XTT metabolic assay. […]

[3] = test system: C. parapsilosis 5986; assay: as above; assay type: cell-based, Candida parapsilosis; conditions: 10^3 cells/mL, RPMI, 35 °C, 48 h, XTT (A490), <10% metabolic activity, at least two independent days, three replicates each
Procedure: as §1, §2

[4] = test system: C. tropicalis 98-234; assay: as above; assay type: cell-based, Candida tropicalis; conditions: 10^3 cells/mL, RPMI, 35 °C, 48 h, XTT (A490), <10% metabolic activity, at least two independent days, three replicates each
Procedure: as §1, §2

[5] = test system: human red blood cells (hRBCs); assay: Hemolysis of human red blood cells; assay type: cell-based; conditions: hRBCs, 2-fold dilutions in tris-buffered saline, an hour at 37 °C, absorbance 405 nm, relative to positive lysis control; average ± standard deviation of three independent experiments of duplicates each
Procedure: Table S1. Hemolysis of β-peptide 1-16, concentration of β-peptid e needed for 50% lysis of human red blood cells (hRBCs)
Peptide # Peptide Concentration at 50% Hemolysis a (HC50, µg/mL) […]
a Hemolysis assays were perfor med as previously indicated in Lee, M.R. et al., ACS Chem. Biol. (2014). Briefly, equal volumes of 2-fold dilutions of β-peptides in tris-buffered saline (TBS) were incubated with hRBCs for an hour at 37 °C. Supernatants were transferred to a new plate and absorbance was measured at 405 nm.
% hemolysis was calculated relative to positive lysis control and the concentration of peptide needed for 50% hemolysis was recorded as HC50 for that peptide. Values reported are average measurements from three independent experiments of duplicates each and the error denoted is the standard deviation. Concentration dependent hemolysis graphs can be found in Lee, M.R. et al., ACS Chem. Biol. (2014).

CC(C)[C@@H](CC(=O)N[C@@H](CCCCN)CC(N)=O)NC(=O)[C@H]1CCCC[C@@H]1NC(=O)C[C@H](CCCCN)NC(=O)C[C@@H](NC(=O)[C@H]1CCCC[C@@H]1NC(=O)C[C@H](CCCCN)NC(=O)C[C@@H](NC(=O)[C@H]1CCCC[C@@H]1N)C(C)C)C(C)C [Peptide 4]
Hydrophobicity (HPLC Retention Time, min) [1]: 24.5 ± 0.2 min | MIC, C. glabrata [2]: 32 mg/L (≈ 27.6 µM) | MIC, C. parapsilosis [3]: 16 mg/L (≈ 13.8 µM) | MIC, C. tropicalis [4]: 4 mg/L (≈ 3.45 µM) | Peptide Concentration at 50% Hemolysis (HC50) [5]: 161 ± 40 µg/mL
